# Measured values from ChEMBL document CHEMBL3994622, “Design and synthesis of new RAF kinase-inhibiting antiproliferative quinoline derivatives. Part 2: Diarylurea derivatives” (Eur J Med Chem, 2017).
# Columns and labels:
# Type in all cases: functional
# DU-145 = experiment: Growth inhibition of human DU145 cells assessed as cell growth at 10 uM incubated for 48 hrs by sulforhodamine B assay relative to control; settings: DU-145, 48 h, read-out: Activity
# PC-3 [1] = experiment: Growth inhibition of human PC3 cells assessed as cell growth at 100 uM incubated for 48 hrs by sulforhodamine B assay relative to control; settings: PC-3, 48 h, read-out: Activity
# UO-31 [2] = experiment: Growth inhibition of human UO31 cells assessed as cell growth at 0.1 uM incubated for 48 hrs by sulforhodamine B assay relative to control; settings: UO-31, 48 h, read-out: Activity
# SK-MEL-5 [3] = experiment: Growth inhibition of human SK-MEL-5 cells assessed as cell growth at 0.1 uM incubated for 48 hrs by sulforhodamine B assay relative to control; settings: SK-MEL-5, 48 h, read-out: Activity
# NCI-H322M = experiment: Growth inhibition of human NCI-H322M cells assessed as cell growth at 10 uM incubated for 48 hrs by sulforhodamine B assay relative to control; settings: read-out: Activity
# UACC-257 = experiment: Growth inhibition of human UACC257 cells assessed as cell growth at 10 uM incubated for 48 hrs by sulforhodamine B assay relative to control; settings: UACC-257, 48 h, read-out: Activity
# EKVX = experiment: Growth inhibition of human EKVX cells assessed as cell growth at 100 uM incubated for 48 hrs by sulforhodamine B assay relative to control; settings: read-out: Activity
# CCRF-CEM [4] = experiment: Growth inhibition of human CCRF-CEM cells assessed as cell growth at 0.01 uM incubated for 48 hrs by sulforhodamine B assay relative to control; settings: read-out: Activity
# OVCAR-3 = experiment: Growth inhibition of human OVCAR3 cells assessed as cell growth at 0.1 uM incubated for 48 hrs by sulforhodamine B assay relative to control; settings: OVCAR-3, 48 h, read-out: Activity
# A549 = experiment: Growth inhibition of human A549/ATCC cells assessed as cell growth at 0.01 uM incubated for 48 hrs by sulforhodamine B assay relative to control; settings: A549, 48 h, read-out: Activity
# HOP-62 = experiment: Growth inhibition of human HOP62 cells assessed as cell growth at 10 uM incubated for 48 hrs by sulforhodamine B assay relative to control; settings: HOP-62, 48 h, read-out: Activity
# HCC 2998 = experiment: Growth inhibition of human HCC2998 cells assessed as cell growth at 0.01 uM incubated for 48 hrs by sulforhodamine B assay relative to control; settings: HCC 2998, 48 h, read-out: Activity
# MDA-MB-435 [5] = experiment: Growth inhibition of human MDA-MB-435 cells assessed as cell growth at 100 uM incubated for 48 hrs by sulforhodamine B assay relative to control; settings: MDA-MB-435, 48 h, read-out: Activity
# HL-60(TB) = experiment: Growth inhibition of human HL-60(TB) cells assessed as cell growth at 10 uM incubated for 48 hrs by sulforhodamine B assay relative to control; settings: HL-60, 48 h, read-out: Activity
# OVCAR-8 = experiment: Growth inhibition of human OVCAR8 cells assessed as cell growth at 100 uM incubated for 48 hrs by sulforhodamine B assay relative to control; settings: OVCAR-8, 48 h, read-out: Activity
# MCF7 = experiment: Growth inhibition of human MCF7 cells assessed as cell growth at 0.01 uM incubated for 48 hrs by sulforhodamine B assay relative to control; settings: MCF7, 48 h, read-out: Activity
# Hs-578T = experiment: Growth inhibition of human Hs 578T cells assessed as cell growth at 3 uM incubated for 48 hrs by sulforhodamine B assay relative to control; settings: read-out: Activity
# SR = experiment: Growth inhibition of human SR cells assessed as cell growth at 0.003 uM incubated for 48 hrs by sulforhodamine B assay relative to control; settings: read-out: Activity
# RXF 393 = experiment: Growth inhibition of human RXF393 cells assessed as cell growth at 3 uM incubated for 48 hrs by sulforhodamine B assay relative to control; settings: RXF 393, 48 h, read-out: Activity
# SK-MEL-28 = experiment: Growth inhibition of human SK-MEL-28 cells assessed as cell growth at 0.3 uM incubated for 48 hrs by sulforhodamine B assay relative to control; settings: SK-MEL-28, 48 h, read-out: Activity
# U-251 = experiment: Growth inhibition of human U251 cells assessed as cell growth at 30 uM incubated for 48 hrs by sulforhodamine B assay relative to control; settings: U-251, 48 h, read-out: Activity
# SK-OV-3 = experiment: Growth inhibition of human SKOV3 cells assessed as cell growth at 0.003 uM incubated for 48 hrs by sulforhodamine B assay relative to control; settings: SK-OV-3, 48 h, read-out: Activity
# Malme-3M = experiment: Growth inhibition of human MALME-3M cells assessed as cell growth at 0.03 uM incubated for 48 hrs by sulforhodamine B assay relative to control; settings: read-out: Activity
# T47D = experiment: Growth inhibition of human T47D cells assessed as cell growth at 3 uM incubated for 48 hrs by sulforhodamine B assay relative to control; settings: read-out: Activity
# SNB-75 = experiment: Growth inhibition of human SNB75 cells assessed as cell growth at 0.03 uM incubated for 48 hrs by sulforhodamine B assay relative to control; settings: SNB-75, 48 h, read-out: Activity
# HCT-15 = experiment: Growth inhibition of human HCT15 cells assessed as cell growth at 0.03 uM incubated for 48 hrs by sulforhodamine B assay relative to control; settings: HCT-15, 48 h, read-out: Activity
# SNB-19 = experiment: Growth inhibition of human SNB19 cells assessed as cell growth at 0.003 uM incubated for 48 hrs by sulforhodamine B assay relative to control; settings: SNB-19, 48 h, read-out: Activity
# UO-31 [6] = experiment: Growth inhibition of human UO31 cells assessed as cell growth at 0.3 uM incubated for 48 hrs by sulforhodamine B assay relative to control; settings: UO-31, 48 h, read-out: Activity
# SK-MEL-5 [7] = experiment: Growth inhibition of human SK-MEL-5 cells assessed as cell growth at 3 uM incubated for 48 hrs by sulforhodamine B assay relative to control; settings: SK-MEL-5, 48 h, read-out: Activity
# PC-3 [8] = experiment: Growth inhibition of human PC3 cells assessed as cell growth at 0.03 uM incubated for 48 hrs by sulforhodamine B assay relative to control; settings: PC-3, 48 h, read-out: Activity
# CCRF-CEM [9] = experiment: Growth inhibition of human CCRF-CEM cells assessed as cell growth at 0.003 uM incubated for 48 hrs by sulforhodamine B assay relative to control; settings: read-out: Activity
# MDA-MB-435 [10] = experiment: Growth inhibition of human MDA-MB-435 cells assessed as cell growth at 30 uM incubated for 48 hrs by sulforhodamine B assay relative to control; settings: MDA-MB-435, 48 h, read-out: Activity
# SF-295 = experiment: Growth inhibition of human SF295 cells assessed as cell growth at 30 uM incubated for 48 hrs by sulforhodamine B assay relative to control; settings: SF-295, 48 h, read-out: Activity
# RPMI-8226 = experiment: Growth inhibition of human RPMI8226 cells assessed as cell growth at 0.03 uM incubated for 48 hrs by sulforhodamine B assay relative to control; settings: RPMI-8226, 48 h, read-out: Activity
Compound,growth at 10 µM (DU-145) [%],growth at 100 µM (PC-3 [1]) [%],growth at 0.1 µM (UO-31 [2]) [%],growth at 0.1 µM (SK-MEL-5 [3]) [%],growth at 10 µM (NCI-H322M) [%],growth at 10 µM (UACC-257) [%],growth at 100 µM (EKVX) [%],growth at 0.01 µM (CCRF-CEM [4]) [%],growth at 0.1 µM (OVCAR-3) [%],growth at 0.01 µM (A549) [%],growth at 10 µM (HOP-62) [%],growth at 0.01 µM (HCC 2998) [%],growth at 100 µM (MDA-MB-435 [5]) [%],growth at 10 µM (HL-60(TB)) [%],growth at 100 µM (OVCAR-8) [%],growth at 0.01 µM (MCF7) [%],growth at 3 µM (Hs-578T) [%],growth at 0.003 µM (SR) [%],growth at 3 µM (RXF 393) [%],growth at 0.3 µM (SK-MEL-28) [%],other results
COc1cc2cc(Oc3ccc(NC(=O)Nc4cc(C(F)(F)F)cc(C(F)(F)F)c4)cc3)c(C)nc2cc1OC,-2,-57,73,101,14.9,-38,-94,97,101,101,-82,99,-63,-41,-43,85,,,,,
Cc1nc2cc(O)c(O)cc2cc1Oc1ccc(NC(=O)Nc2ccc(Cl)c(Cl)c2)cc1,,,,,94,,,,,,,,,,,,100,100,86,87,growth at 30 µM (U-251): 3%; growth at 0.003 µM (SK-OV-3): 104%; growth at 0.03 µM (Malme-3M): 101%; growth at 3 µM (T47D): 100%; growth at 0.03 µM (SNB-75): 81%; growth at 0.03 µM (HCT-15): 98%; growth at 0.003 µM (SNB-19): 94%; growth at 0.3 µM (UO-31 [6]): 102%; growth at 3 µM (SK-MEL-5 [7]): 85%; growth at 0.03 µM (PC-3 [8]): 97%; growth at 0.003 µM (CCRF-CEM [9]): 97%; growth at 30 µM (MDA-MB-435 [10]): 7%; growth at 30 µM (SF-295): 9%; growth at 0.03 µM (RPMI-8226): 98%
COc1cc2cc(Oc3ccc(NC(=O)Nc4ccc(Cl)c(Cl)c4)cc3)c(C)nc2cc1OC,19,-96,101,100,,-23,-36,102,116,96,8,101,-45,-22,-100,95,,,,,
COc1cc2cc(Oc3ccc(NC(=O)Nc4ccc(Cl)c(C(F)(F)F)c4)cc3)c(C)nc2cc1OC,,,,,,,,,,,,,,,,,-15,99,10,91,growth at 30 µM (U-251): -89%; growth at 0.003 µM (SK-OV-3): 101%; growth at 0.03 µM (Malme-3M): 100%; growth at 3 µM (T47D): 19%; growth at 0.03 µM (SNB-75): 84%; growth at 0.03 µM (HCT-15): 93%; growth at 0.003 µM (SNB-19): 94%; growth at 0.3 µM (UO-31 [6]): 105%; growth at 3 µM (SK-MEL-5 [7]): -20%; growth at 0.03 µM (PC-3 [8]): 94%; growth at 0.003 µM (CCRF-CEM [9]): 111%; growth at 30 µM (MDA-MB-435 [10]): -46%; growth at 30 µM (SF-295): -59%; growth at 0.03 µM (RPMI-8226): 98%
